What was measured:
[1] = system: primary cortical neuron cultures; assay: Neuronal viability after oxidative stress (H2O2), crystal violet assay; type: cell-based, rat; settings: pre-treatment one day prior to 40 mM H2O2
Method: Cell viability assays. […] Since the MTT assay measures both metabolic function (mitochondrial-based) and cell viability, a second method, the crystal violet assay, was used to assess cell density. For the crystal violet assay, the cells were rinsed in phosphate buffered saline (PBS) and stained for 10 minutes at room temperature with crystal violet solution (0.05% crystal violet, 2% formalin, 10% methanol). After extensive rinsing in tap water baths, the plates were dried and the dye eluted with 200 μl/well of PBS containing 1% SDS. The absorbance was measured at 595 nm using an automated ELISA reader.
High through-put screening with primary neuronal cell cultures. Primary neuronal cells were cultured in 96-well plates coated with collagen type IV or laminin.
Cerebral cortex tissue harvested from 16-18 day old rat fetuses (Sprague-Dawley) was incubated for 10 minutes in calcium-free and magnesium-free Hanks balanced salt solution (CMF-HBSS), followed by digestion in 0.25% trypsin/CMF-HBSS for 30 minutes at 37° C. […]
The cell viability was measured using the crystal violet assay one day after the oxidative injury. […]
Viability is expressed as percentage change relative to cultures treated only with the oxidant. […] Cell viability was measured using the crystal violet assay 1 day after the oxidative injury. […] Standard deviations calculated for 8 replicate cultures were <10%.

cerebral ischaemia = settings: cited from earlier work

Structure (SMILES) | increase in viability (in words) [1] | neuronal rescue (in words) [1] | infarct volume reductions (cerebral ischaemia)
c1ccc(Nc2ccccc2)cc1 [Diphenylamine, diphenylamine] | modest increase in viability | less pronounced neuronal rescue | –
[Mg+2] [Mg, magnesium] | – | – | 25-61%
